From publication PMC3292552, “Post-Translational Regulation and Trafficking of the Granulin-Containing Protease RD21 of Arabidopsis thaliana” (PLoS ONE, 2012)

What was measured:
RD21 [1] = target: T1, RD21 (Arabidopsis thaliana, UniProt P43297, C161A); test: competition of DCG-04 labelling; format: biochemical; details: 20 µM E-64 preincubation, 0.2 µM DCG-04, pH 6; catalytic Cys absent; leaf extract
T1 construct: gene RD21A; full-length preproprotein agroinfiltrated in Nicotiana benthamiana, two (pRH628) or three (pRH629) extra C-terminal Ser; crude leaf extract; processed in planta to iRD21/mRD21; mRD21 N-termini DELPE, LPE, GDELPE; also endogenous in Arabidopsis leaf extract
T1 sequence (P43297 137-462 C161A): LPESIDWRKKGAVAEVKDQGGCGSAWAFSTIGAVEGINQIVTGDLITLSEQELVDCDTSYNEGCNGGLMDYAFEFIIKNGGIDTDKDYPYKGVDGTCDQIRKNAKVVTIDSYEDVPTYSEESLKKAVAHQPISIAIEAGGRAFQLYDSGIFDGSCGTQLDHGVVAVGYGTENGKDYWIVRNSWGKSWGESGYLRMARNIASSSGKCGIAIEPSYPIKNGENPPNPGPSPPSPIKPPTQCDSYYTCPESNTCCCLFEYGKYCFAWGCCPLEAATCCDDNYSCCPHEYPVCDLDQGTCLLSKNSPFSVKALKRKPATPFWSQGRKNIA

RD21 [2] = target: T2, RD21 (Arabidopsis thaliana, UniProt P43297); test: competition of DCG-04 labelling; protection of rubisco from degradation; format: biochemical; details: covalent; 20 µM E-64 preincubation, 0.2 µM DCG-04, pH 6, 1 mM DTT; leaf extract
T2 construct: gene RD21A; full-length preproprotein agroinfiltrated in Nicotiana benthamiana, two (pRH628) or three (pRH629) extra C-terminal Ser; crude leaf extract; processed in planta to iRD21/mRD21; mRD21 N-termini DELPE, LPE, GDELPE; also endogenous in Arabidopsis leaf extract
T2 sequence (P43297 137-462): as the sequence (P43297 137-462 C161A) above, with A25C counted along it

In the case of `CC(C)C[C@H](NC(=O)[C@H]1O[C@@H]1C(=O)O)C(=O)NCCCCNC(=N)N` [E-64], the “competition of DCG-04 labelling” value (RD21 [1]) is reported as “a weak, E-64-competable biotinylation occurs of iRD21” and the “competition of DCG-04 labelling; protection of rubisco from degradation” value (RD21 [2]) is reported as “the reaction with DCG-04 can be prevented by preincubation with E-64”.
